In PubChem BioAssay AID1963872 (Molecular Pharmacology Branch, DTP, NCI, 2024):

Tested on: KRAS patient-derived spheroids with HUVEC/MSC, viability
Assay: Anticancer human tumor 519858-162-T-J1-PDC patient-derived colon adenocarcinoma cell line growth inhibition [KRAS2]
Settings: for IC50: curve of first compound; for viability, T/C: stronger effect = lower value
Summary of the method: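 KRAS-mutant tumor cells were grown as spheroids with HUVEC endothelial cells and human MSCs as stroma. Targeted agents were tested alone and with KRAS pathway inhibitors. Doses started at or near clinical Cmax, or 10 microM, descending half-log.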

[1] = second compound 0.1 µM, first compound 0.000316 µM
[2] = second compound 0.1 µM, first compound 0.001 µM
[3] = second compound 0.1 µM, first compound 0.00316 µM
[4] = second compound 0.1 µM, first compound 0.01 µM
[5] = second compound 0.1 µM, first compound 0.0316 µM
[6] = second compound 0.316 µM, first compound 0.000316 µM
[7] = second compound 0.316 µM, first compound 0.001 µM
[8] = second compound 0.316 µM, first compound 0.00316 µM
[9] = second compound 0.316 µM, first compound 0.01 µM
[10] = second compound 0.316 µM, first compound 0.0316 µM
[11] = second compound 1 µM, first compound 0.000316 µM
[12] = second compound 1 µM, first compound 0.001 µM
[13] = second compound 1 µM, first compound 0.00316 µM
[14] = second compound 1 µM, first compound 0.01 µM
[15] = second compound 1 µM, first compound 0.0316 µM
[16] = second compound 3.16 µM, first compound 0.000316 µM
[17] = second compound 3.16 µM, first compound 0.001 µM
[18] = second compound 3.16 µM, first compound 0.00316 µM
[19] = second compound 3.16 µM, first compound 0.01 µM
[20] = second compound 3.16 µM, first compound 0.0316 µM
[21] = second compound 10 µM, first compound 0.000316 µM
[22] = second compound 10 µM, first compound 0.001 µM
[23] = second compound 10 µM, first compound 0.00316 µM
[24] = second compound 10 µM, first compound 0.01 µM
[25] = second compound 10 µM, first compound 0.0316 µM
[26] = second compound 0.1 µM, first compound 0.1 µM
[27] = second compound 0.316 µM, first compound 0.1 µM
[28] = second compound 1 µM, first compound 0.1 µM
[29] = second compound 3.16 µM, first compound 0.1 µM
[30] = second compound 10 µM, first compound 0.1 µM
[31] = second compound 0.1 µM, first compound 0.316 µM
[32] = second compound 0.1 µM, first compound 1 µM
[33] = second compound 0.1 µM, first compound 3.16 µM
[34] = second compound 0.1 µM, first compound 10 µM
[35] = second compound 0.316 µM, first compound 0.316 µM
[36] = second compound 0.316 µM, first compound 1 µM
[37] = second compound 0.316 µM, first compound 3.16 µM
[38] = second compound 0.316 µM, first compound 10 µM
[39] = second compound 1 µM, first compound 0.316 µM
[40] = second compound 1 µM, first compound 1 µM
[41] = second compound 1 µM, first compound 3.16 µM
[42] = second compound 1 µM, first compound 10 µM
[43] = second compound 3.16 µM, first compound 0.316 µM
[44] = second compound 3.16 µM, first compound 1 µM
[45] = second compound 3.16 µM, first compound 3.16 µM
[46] = second compound 3.16 µM, first compound 10 µM
[47] = second compound 10 µM, first compound 0.316 µM
[48] = second compound 10 µM, first compound 1 µM
[49] = second compound 10 µM, first compound 3.16 µM
[50] = second compound 10 µM, first compound 10 µM
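Also: compound exposure lasted seven days before readout.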
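For viability, T/C in this document: 100% = DMSO vehicle control viability.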

CC(=O)Nc1cccc(-n2c(=O)n(C3CC3)c(=O)c3c(Nc4ccc(I)cc4F)n(C)c(=O)c(C)c32)c1 + COc1cc2nc(C)nc(NC(C)c3cc(N)cc(C(F)(F)F)c3)c2cc1OC1CCOC1
IC50 (second compound 0.1 µM): 0.00246 µM
IC50 (second compound 0.316 µM): 0.00201 µM
IC50 (second compound 1 µM): 0.00101 µM
IC50 (second compound 3.16 µM): 0.000275 µM
IC50 (second compound 10 µM): 0.000203 µM
viability, T/C (second compound 0.1 µM, first compound 0.0001 µM): 83.3%
viability, T/C [1]: 74.2%
viability, T/C [2]: 65%
viability, T/C [3]: 39.6%
viability, T/C [4]: 36.1%
viability, T/C [5]: 12.5%
viability, T/C (second compound 0.316 µM, first compound 0.0001 µM): 64.8%
viability, T/C [6]: 85.2%
viability, T/C [7]: 73.8%
viability, T/C [8]: 34.7%
viability, T/C [9]: 24.2%
viability, T/C [10]: 13.8%
viability, T/C (second compound 1 µM, first compound 0.0001 µM): 72.2%
viability, T/C [11]: 59.3%
viability, T/C [12]: 53.1%
viability, T/C [13]: 33.6%
viability, T/C [14]: 18.5%
viability, T/C [15]: 11%
viability, T/C (second compound 3.16 µM, first compound 0.0001 µM): 67.8%
viability, T/C [16]: 46.3%
viability, T/C [17]: 30.6%
viability, T/C [18]: 27.7%
viability, T/C [19]: 11.9%
viability, T/C [20]: 8.2%
viability, T/C (second compound 10 µM, first compound 0.0001 µM): 69.2%
viability, T/C [21]: 32.2%
viability, T/C [22]: 31.9%
viability, T/C [23]: 6.2%
viability, T/C [24]: 4.93%
viability, T/C [25]: 3.59%

CN(C)C/C=C/C(=O)Nc1cc2c(Nc3ccc(F)c(Cl)c3)ncnc2cc1O[C@H]1CCOC1 + COc1cc2nc(C)nc(NC(C)c3cc(N)cc(C(F)(F)F)c3)c2cc1OC1CCOC1
IC50 (second compound 0.1 µM): > 0.1 µM
IC50 (second compound 0.316 µM): > 0.1 µM
IC50 (second compound 1 µM): > 0.1 µM
IC50 (second compound 3.16 µM): 0.0813 µM
IC50 (second compound 10 µM): > 0.1 µM
viability, T/C [1]: 87%
viability, T/C [2]: 91.3%
viability, T/C [3]: 92.7%
viability, T/C [4]: 92.6%
viability, T/C [5]: 78.7%
viability, T/C [26]: 81.2%
viability, T/C [6]: 93%
viability, T/C [7]: 73.7%
viability, T/C [8]: 73.4%
viability, T/C [9]: 73.5%
viability, T/C [10]: 90.8%
viability, T/C [27]: 98.9%
viability, T/C [11]: 138%
viability, T/C [12]: 146%
viability, T/C [13]: 101%
viability, T/C [14]: 101%
viability, T/C [15]: 95.5%
viability, T/C [28]: 91.2%
viability, T/C [16]: 85.6%
viability, T/C [17]: 80.7%
viability, T/C [18]: 90.3%
viability, T/C [19]: 88.3%
viability, T/C [20]: 75.5%
viability, T/C [29]: 44.5%
viability, T/C [21]: 73.2%
viability, T/C [22]: 62.5%
viability, T/C [23]: 76.9%
viability, T/C [24]: 88.3%
viability, T/C [25]: 70.3%
viability, T/C [30]: 62.3%

COC(=O)c1ccc2c(C(=Nc3ccc(N(C)C(=O)CN4CCN(C)CC4)cc3)c3ccccc3)c(O)[nH]c2c1 + COc1cc2nc(C)nc(NC(C)c3cc(N)cc(C(F)(F)F)c3)c2cc1OC1CCOC1
IC50 (second compound 0.1 µM): > 10 µM
IC50 (second compound 0.316 µM): > 10 µM
IC50 (second compound 1 µM): > 10 µM
IC50 (second compound 3.16 µM): > 10 µM
IC50 (second compound 10 µM): 4.74 µM
viability, T/C [5]: 71.2%
viability, T/C [26]: 44.7%
viability, T/C [31]: 48.3%
viability, T/C [32]: 71.4%
viability, T/C [33]: 85.2%
viability, T/C [34]: 113%
viability, T/C [10]: 59.1%
viability, T/C [27]: 51.8%
viability, T/C [35]: 92%
viability, T/C [36]: 75.1%
viability, T/C [37]: 62.1%
viability, T/C [38]: 73.7%
viability, T/C [15]: 64.5%
viability, T/C [28]: 57.3%
viability, T/C [39]: 55.1%
viability, T/C [40]: 51.6%
viability, T/C [41]: 51%
viability, T/C [42]: 77.9%
viability, T/C [20]: 64.3%
viability, T/C [29]: 64.6%
viability, T/C [43]: 50.2%
viability, T/C [44]: 55.2%
viability, T/C [45]: 66.1%
viability, T/C [46]: 88.1%
viability, T/C [25]: 66.2%
viability, T/C [30]: 53.3%
viability, T/C [47]: 56.3%
viability, T/C [48]: 80.9%
viability, T/C [49]: 128%
viability, T/C [50]: 0.38%

COc1cc(Nc2ncc3c(n2)-c2ccc(Cl)cc2C(c2c(F)cccc2OC)=NC3)ccc1C(=O)O + COc1cc2nc(C)nc(NC(C)c3cc(N)cc(C(F)(F)F)c3)c2cc1OC1CCOC1
IC50 (second compound 0.1 µM): > 10 µM
IC50 (second compound 0.316 µM): > 10 µM
IC50 (second compound 1 µM): > 10 µM
IC50 (second compound 3.16 µM): > 10 µM
IC50 (second compound 10 µM): > 10 µM
viability, T/C [5]: 76.3%
viability, T/C [26]: 72.5%
viability, T/C [31]: 68%
viability, T/C [32]: 75.6%
viability, T/C [33]: 88.5%
viability, T/C [34]: 87.6%
viability, T/C [10]: 79.3%
viability, T/C [27]: 78.1%
viability, T/C [35]: 62.2%
viability, T/C [36]: 82.8%
viability, T/C [37]: 78.4%
viability, T/C [38]: 115%
viability, T/C [15]: 85.9%
viability, T/C [28]: 66.4%
viability, T/C [39]: 76.6%
viability, T/C [40]: 74.8%
viability, T/C [41]: 68.6%
viability, T/C [42]: 72.3%
viability, T/C [20]: 78.9%
viability, T/C [29]: 72%
viability, T/C [43]: 60.6%
viability, T/C [44]: 80.9%
viability, T/C [45]: 60.6%
viability, T/C [46]: 76.4%
viability, T/C [25]: 65.3%
viability, T/C [30]: 74.2%
viability, T/C [47]: 54.8%
viability, T/C [48]: 63.5%
viability, T/C [49]: 60.6%
viability, T/C [50]: 75.3%

COc1cc2nccc(Oc3ccc(NC(=O)C4(C(=O)Nc5ccc(F)cc5)CC4)cc3)c2cc1OC + COc1cc2nc(C)nc(NC(C)c3cc(N)cc(C(F)(F)F)c3)c2cc1OC1CCOC1
IC50 (second compound 0.1 µM): > 10 µM
IC50 (second compound 0.316 µM): > 10 µM
IC50 (second compound 1 µM): > 10 µM
IC50 (second compound 3.16 µM): > 10 µM
IC50 (second compound 10 µM): 2.33 µM
viability, T/C [5]: 73.8%
viability, T/C [26]: 73.3%
viability, T/C [31]: 57%
viability, T/C [32]: 107%
viability, T/C [33]: 129%
viability, T/C [34]: 99.9%
viability, T/C [10]: 84.5%
viability, T/C [27]: 82%
viability, T/C [35]: 72.5%
viability, T/C [36]: 85.7%
viability, T/C [37]: 95.5%
viability, T/C [38]: 64%
viability, T/C [15]: 55.7%
viability, T/C [28]: 73.4%
viability, T/C [39]: 71.6%
viability, T/C [40]: 98%
viability, T/C [41]: 112%
viability, T/C [42]: 68.9%
viability, T/C [20]: 75%
viability, T/C [29]: 76.8%
viability, T/C [43]: 77.9%
viability, T/C [44]: 79.4%
viability, T/C [45]: 41.2%
viability, T/C [46]: 82%
viability, T/C [25]: 66.6%
viability, T/C [30]: 76.5%
viability, T/C [47]: 65.3%
viability, T/C [48]: 97.1%
viability, T/C [49]: 1.79%
viability, T/C [50]: 79.3%

O=C(c1cc(Cc2n[nH]c(=O)c3ccccc23)ccc1F)N1CCN(C(=O)C2CC2)CC1 + COc1cc2nc(C)nc(NC(C)c3cc(N)cc(C(F)(F)F)c3)c2cc1OC1CCOC1
IC50 (second compound 0.1 µM): > 10 µM
IC50 (second compound 0.316 µM): > 10 µM
IC50 (second compound 1 µM): > 10 µM
IC50 (second compound 3.16 µM): > 10 µM
IC50 (second compound 10 µM): > 10 µM
viability, T/C [5]: 68.1%
viability, T/C [26]: 98.2%
viability, T/C [31]: 98.6%
viability, T/C [32]: 111%
viability, T/C [33]: 91%
viability, T/C [34]: 97.4%
viability, T/C [10]: 75.1%
viability, T/C [27]: 90%
viability, T/C [35]: 89.9%
viability, T/C [36]: 80.2%
viability, T/C [37]: 102%
viability, T/C [38]: 99.1%
viability, T/C [15]: 73.3%
viability, T/C [28]: 108%
viability, T/C [39]: 89.9%
viability, T/C [40]: 83.7%
viability, T/C [41]: 112%
viability, T/C [42]: 72.6%
viability, T/C [20]: 78.1%
viability, T/C [29]: 89.7%
viability, T/C [43]: 75.6%
viability, T/C [44]: 80.8%
viability, T/C [45]: 79.6%
viability, T/C [46]: 66.8%
viability, T/C [25]: 117%
viability, T/C [30]: 85.1%
viability, T/C [47]: 96.2%
viability, T/C [48]: 53.4%
viability, T/C [49]: 67.1%
viability, T/C [50]: 109%
